# From patent publication US9956232B2, “Dialkyl-phosphinoyl-alkane (Dapa) compounds and compositions for treatment of lower gastrointestinal tract disorders” (priority 2016, dated 2018)
# Where “and” joins values, the source holds several entries; their conditions need not be identical. Equal entries are not always repeated.
# Legend:
# isolated mouse vagus = assay: Capsaicin-induced depolarization of the isolated vagus nerve; conditions: data also shown in U.S. Ser. No. 14/544,042
# Source text: An isolated vagus nerve model was developed at Imperial College, London, U.K. [Birrell et al. TrpA1 agonists evoke coughing in guinea pig and human volunteers. Amer. J. respiratory and critical care medicine 180, 1042-7, 2009; Patel, H. J. et al. Inhibition of guinea-pig and human sensory nerve activity and the cough reflex in guinea-pigs by cannabinoid (CB2) receptor activation. Brit. J. Pharmacol. 140, 261-8, 2003]. In this in vitro assay, segments of the mouse vagus nerve are placed on a platform and the electrical activity is recorded after topical application of capsaicin. Capsaicin is a known irritant that elicits pain when it is applied to the skin and it will depolarize the isolated vagus. […] The similar effect of DAPA-2-5 in this test system was published in U.S. Ser. No. 14/55,042. Briefly, segments of vagus nerve, caudal to the nodose ganglion, were removed from mice with fine forceps and segments placed in oxygenated Krebs solution and bubbled with 95% O2/5% CO2. The desheathed nerve trunk was mounted in a ‘grease-gap’ recording chamber and constantly superfused with Krebs solution with a flow rate of approximately 2 mL/min, and the electrical activity of the nerve monitored with electrodes. The temperature of the perfusate was kept constant at 37° C. by a water bath. Nerve depolarizations were induced by superfusion of the nerve with capsaicin (1 μM). After two reproducible depolarization responses to capsaicin, DIPA-1-7 was applied at 1 mg/mL for 10 minutes in the perfusate followed by capsaicin.
# [1] = system: heat-induced edema in the anesthetized rat paw; assay: Heat-induced edema in the anesthetized rat paw; assay type: in vivo; conditions: 20 mg/mL, 0.3 mL per paw, 30 min before 58° C. water 1 min; relative to contralateral paw
# Source text: Inflammation is defined as the reaction of vascularized living tissue to local injury [Cotran, R S. 1989. Inflammation and repair. In Robbins: Pathologic Basis of Disease, ed. S. L. Robbins, R. S. Cotran, V. Kumar, 2:39-86. Philadelphia: Saunders. 4th ed.]. The characteristic signs of inflammation are redness, swelling, heat, and pain (and loss of function). The anti-inflammatory properties of the DAPA compounds were studied in a model of heat-induced vascular leakage [Wei et al. Method of inhibiting inflammatory response. U.S. Pat. No. 4,801,612; Wei et al., Anti-inflammatory peptide agonists. Annual Review Pharmacol Toxicol. 33:9-108, 1993]. When the paws of pentobarbital-anesthetized rats (200 to 300 g body weight) are immersed in 58° C. water for 1 min, the normal paw volume of about 1.8 mL was increased by ˜88% within 30 min, the swelling being due to an increase in water content of the paw.
# Test compounds were dissolved in 20% water-80% R-1,2-propanediol at 20 mg/mL. The solutions were applied to the paw skin of pentobarbital-anesthetized rats (200 to 300 g body weight) at 0.3 mL per paw, using a syringe attached to a blunt 21 gauge needle covered at its tip with a piece of polyethylene 60 tubing. After distributing the solution over the paw, the paw was tightly enclosed in a plastic finger cut from a disposable glove. The contralateral paw [control] received only the vehicle. Thirty min after application, both paws were immersed in 58° C. water for 1 min. Thirty min after immersion, both paws were cut at ankle joint with scissors and weighed.
# This degree of inhibition is significant for tissue protection as the injury stimulus is of supra-maximal intensity. The DAPA-2-5 effect was apparent to the untrained observer.
# [2] = system: pentobarbital-anesthetized male rats; assay: Shaking frequency (wet-dog shaking) of anesthetized rats after intravenous, perioral or topical delivery; assay type: in vivo; conditions: anesthetized rat
# Protocol: In experiments conducted here, test compounds were evaluated for “wet-dog shaking” as a model of cooling sensation. Using a standardized procedure, test compounds were compared in their ability to stimulate the shaking response by intravenous injection into a cannulated femoral vein, by perioral administration, and by topical delivery to the abdominal skin.
# Each rat was given two injections with a 30 min interval. […] Shaking frequency was counted for 15 min after injection. Shaking was observed immediately after i.v. injection and at least 78% of the total shakes occurred in the first 5 min after injection. The response in the second trial was at least as robust in the first trial, showing the lack of desensitization.
# Test compounds were dissolved in saline and administered by oral gavage to pentobarbital-anesthetized male albino rats at 20 mg/kg at a volume of 0.1 mL/100 g body weight [N=3 to 4 rats per compound]. Shaking was counted over a 40 min period and recorded at 10-min intervals.
# For topical application of DAPA, the abdominal skin of the anesthetized rat was shaved and 20 μL of the pure DAPA was applied with a micropipette onto a ˜1 cm diameter circle of skin, enclosed with a ring of cream [Baby cream “Nevskaya kosmetika Detskyi” Nevskaya Kosmetika Inc., Saint-Petersburg 192029], as shown in FIG. 5D. The number of shakes was counted for 1 hr after application.
# Strains TA 98 and TA100 = assay: Ames test; assay type: cell-based; conditions: TA 98 and TA100, with and without liver activation
# Protocol: Preliminary toxicological studies were conducted on DAPA-2-5 and DAPA-2-7.
# [3] = Repeated-dose toxicity in male rats (organ weights, histology); assay type: in vivo, rat
# TRPM8 = TRPM8 (Homo sapiens, UniProt Q7Z2W7); assay: TRPM8 receptor agonist assay (Fluo-8 calcium, FLIPR); assay type: cell-based; set-up: host or cells: CHO cells, stably transfected
# Protocol: Compounds were tested on (CHO) cells stably transfected with human TRPM8 cDNAs using a Fluo-8 calcium kit and a Fluorescence Imaging Plate Reader ([…]™) instrument. […] Solutions were prepared by diluting stock solutions in a HEPES-buffered physiological saline (HBPS) solution. Test compound and control formulations were loaded in polypropylene or glass-lined 384-well plates, and placed into the FLIPR instrument (Molecular Devices Corporation, Union City, Calif., USA). Each was tested at 8 concentrations with n=4 replicates per determination. […] For […]™ assay, cells were plated in 384-well black wall, flat clear-bottom microtiter plates (Type: BD Biocoat Poly-D-Lysine Multiwell Cell Culture Plate) at approximately 30,000 cells per well. Cells were incubated at 37° C. overnight to reach a near confluent monolayer appropriate for use in a fluorescence assay. The test procedure was to remove the growth media and to add 40 μL of HBPS containing Fluo-8 for 30 minutes at 37° C. 10 μL of test compound, vehicle, or control solutions in HBPS were added to each well and read for 4 minutes. Concentration-response data were analysed via the FLIPR Control software that is supplied with the FLIPR System (MDS-AT) and fitted to a Hill equation.
# TRPM8, sequence (Q7Z2W7 whole entry): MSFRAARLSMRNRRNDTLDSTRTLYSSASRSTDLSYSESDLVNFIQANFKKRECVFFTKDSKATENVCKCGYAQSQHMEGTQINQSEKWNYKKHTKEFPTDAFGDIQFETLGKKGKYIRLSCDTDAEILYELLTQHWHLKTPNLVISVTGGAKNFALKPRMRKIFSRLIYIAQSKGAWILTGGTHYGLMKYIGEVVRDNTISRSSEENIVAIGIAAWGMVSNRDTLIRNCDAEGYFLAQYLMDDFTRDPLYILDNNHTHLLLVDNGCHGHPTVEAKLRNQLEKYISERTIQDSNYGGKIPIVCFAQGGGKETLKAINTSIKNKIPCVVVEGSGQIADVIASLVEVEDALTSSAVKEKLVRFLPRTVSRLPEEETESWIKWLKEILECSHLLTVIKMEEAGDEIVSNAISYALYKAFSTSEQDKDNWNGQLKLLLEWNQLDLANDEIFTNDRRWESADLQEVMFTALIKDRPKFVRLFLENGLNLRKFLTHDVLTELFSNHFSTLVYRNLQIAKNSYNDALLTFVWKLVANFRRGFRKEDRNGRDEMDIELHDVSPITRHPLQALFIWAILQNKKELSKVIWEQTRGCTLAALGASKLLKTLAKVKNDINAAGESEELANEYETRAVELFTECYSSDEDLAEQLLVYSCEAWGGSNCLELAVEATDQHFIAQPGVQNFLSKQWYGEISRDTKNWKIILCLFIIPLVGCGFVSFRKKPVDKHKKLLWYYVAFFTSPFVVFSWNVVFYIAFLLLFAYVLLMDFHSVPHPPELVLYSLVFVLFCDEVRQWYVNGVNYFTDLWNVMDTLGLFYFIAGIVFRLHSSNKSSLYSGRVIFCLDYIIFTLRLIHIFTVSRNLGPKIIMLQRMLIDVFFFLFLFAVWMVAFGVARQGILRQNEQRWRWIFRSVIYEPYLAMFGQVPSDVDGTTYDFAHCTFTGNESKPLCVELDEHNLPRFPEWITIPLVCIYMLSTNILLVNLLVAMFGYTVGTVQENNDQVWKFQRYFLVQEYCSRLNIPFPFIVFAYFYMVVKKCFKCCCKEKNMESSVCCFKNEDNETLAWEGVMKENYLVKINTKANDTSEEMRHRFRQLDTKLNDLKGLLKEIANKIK
smiles,measurement,setting,value
"CCCCCP(=O)(C(C)CC)C(C)CC (centres unmarked) [DAPA-2-5, 1-Di(sec-butyl) phosphinoyl-pentane]",inhibition of capsaicin-induced depolarization,isolated mouse vagus; TRPM8 knock-out mouse,did not inhibit
same,percent inhibition of capsaicin-induced depolarization,isolated mouse vagus; isolated normal mouse vagus,60%
same,Inhibition of Heat Edema (±S.E.M.),[1],12.9% and 12.9 ± 2.5 %
same,"Shaking frequency, Intravenous","[2]; 2 mg/kg i.v., 2nd trial, counted for 15 min",20 ± 2 shakes
same,"Shaking frequency, Perioral","[2]; 20 mg/kg by oral gavage, counted for 40 min",4 shakes and 4 ± 1 shakes
same,"Shaking frequency, Topical","[2]; 20 μL pure compound on shaved abdominal skin, counted for 1 hr",0 shakes
same,mutagenicity in the Ames test,Strains TA 98 and TA100,Neither of these compounds was mutagenic
same,organ weights and histology vs vehicle,"[3]; 20 mg/kg perioral by gavage for 7 days, rats",no statistical difference in organ weights or in histology
same,organ weights and histology vs vehicle,"[3]; via drinking water, 41 mg/kg body weight/day for 40 days, male rats",no statistical difference in organ weights or in histology
same,×Menthol,TRPM8; TRPM8 relative potency as repeated in Table 4,2.2
same,Relative Potency,TRPM8; relative to menthol = 1.0 (Table 2),2.2
